Measured values published in patent US20150031554A1, “EXTRACELLULAR TELOMERE ASSAY” (The UAB Research Foundation, priority 2012, published 2015).

Assays:
G-quadruplex = conditions: versus duplex, single strand, and hairpins; method of Balasubramanian et al.; cited from earlier work
[1] = test system: D54, a human brain cancer cell line; experiment: Extracellular telomere release into conditioned media (qPCR); format: cell-based; conditions: in response to doxorubicin treatment (FIG. 2B)
Description: (§1) The samples to be tested were centrifuged at 1200×g for 6 minutes to remove residual cells. The supernatant was removed and centrifuged at 12,000× for 12 minutes to remove cellular debris. DNA was isolated from the final supernatant using a Qiagen DNA isolation kit. The DNA concentration of each sample was determined with the highly sensitive pico-green fluorometric assay (Invitrogen; Carlsbad, Calif.).
(§2) The obtained purified cell-free DNA was assayed for extracellular telomere sequences. Extracellular telomeres were measured using quantitative PCR (qPCR) with the widely accepted method of Cawthon (“Telomere measurement by quantitative PCR,” Nucleic Acids Research, 30:e47 (2002)). Other DNA sequences (actin, BRCA 1, alpha satellite DNA, and Alu repeats) were analyzed using published primers and conditions. Normal human genomic DNA (Roche; Basel, Switzerland) was used to create a telomere qPCR standard curve for the clinical specimens. For mouse standard curves, normal mouse genomic DNA isolated from murine peripheral blood cells was used.

[2] = test system: U373, a human brain cancer cell line; experiment: as above; format: cell-based; conditions: in response to doxorubicin treatment (FIG. 2A)
Description: as §1, §2

[3] = test system: human MDA-MB-23 1 breast cancer cells; experiment: Extracellular telomere release into cell-free conditioned media (qPCR); format: cell-based
Description: as §1, §2

Row | SMILES | selectivity of capture (G-quadruplex) | extracellular telomere release [1] | extracellular telomere release [2] | extracellular telomere release ([3]; doxorubicin 10^−5 M, indicated times, Alu and alpha satellite sequences as controls (FIG. 1)) | telomere enrichment in cell-free conditioned media ([3]; qPCR, compared with untreated cells or cells subjected to hypoxia, 2 independent experiments (FIG. 5))
1 | NCCOc1cc(C(=O)Nc2cc(OCCN)c3ccccc3n2)nc(C(=O)Nc2cc(OCCN)c3ccccc3n2)c1 [compound 2, pyridostatin] | selective for G-quadruplex capture over other DNA structural motifs | – | – | – | –
2 | COc1cccc2c1C(=O)c1c(O)c3c(c(O)c1C2=O)C[C@@](O)(C(=O)CO)C[C@@H]3O[C@H]1C[C@H](N)[C@H](O)[C@H](C)O1 [doxorubicin] | – | extracellular telomere release | extracellular telomere release | specifically released | highly enriched
